Common to all, as to type: in vivo, human
Series [1] concerns patient with low-grade connective tissue symptoms. In words: Example 5: clarithromycin study, VAS and joint assessment. The settings on record: person. From the text: In 1991, it was elected to begin the patient on hydroxychloroquine ([…]®, Sanofi-Synthelabo, Inc.) given their low-grade connective tissue symptoms not responding to non-steroidal anti-inflammatory therapy. […] A trial of hydroxychloroquine was again initiated to see how they would tolerate it. […] Hydroxychloroquine was discontinued when they wanted to attempt getting pregnant again. Therapy most recently consisted of non-steroidal inflammatory agents and physical therapy.
On Feb. 27, 2003, the patient agreed to participate in the clarithromycin study. […] The patient was begun on clarithromycin (BIAXIN®, Abbott Laboratories) 500 mg twice per day.

Series [2] relates to patient with undifferentiated connective tissue disease. Briefly: Example 6: clarithromycin trial, VAS and joint assessment. The conditions noted are these: person. The text has this: A patient, was first seen in September 1999. […] They have used a number of anti-inflammatory agents frequently for therapy.
On the basis of the findings, including recurrent episodes of arthritis, Raynaud's, and thickening of the hands, connective tissue disease diagnoses such as Mixed Connective Tissue Disease or Progressive Systemic Sclerosis were considered.
Based on these findings, a diagnosis of Undifferentiated Connective Tissue Disease was made. Therapy was initiated with hydroxychloroquine ([…]®, Sanofi-Synthelabo, Inc.) and a non-steroidal anti-inflammatory agent. They utilized steroid dose packs periodically for symptomatic relief of their peripheral symptoms as well as their neck symptoms.
On examination, they had symptoms and findings much as before and a diagnosis of Undifferentiated Connective Tissue Disease was made. The patient agreed to undergo a trial with clarithromycin.
Following screening and baseline evaluations, the patient was begun on clarithromycin (BIAXIN®, Abbott Laboratories).
25, 2003 (“Visit 3”), for their first recheck visit.
When seen for their one month evaluation, the patient had been off steroid medication for approximately ten days.
Further assessment of their status was made on Apr. 13, 2003 at which time they were now off steroids for almost a one-month period.
Patient was again seen Apr. 21, 2003 (“Visit Four”), for their formal two-month follow-up on clarithromycin.

For series [3] the test system is unchanged. Briefly: Example 1: clinical observation of patient on clarithromycin. The settings on record: person; switched from clarithromycin to azithromycin 500 mg day 1, 250 mg/day days 2 through 5. From the text:
We elected to continue them on this antibiotic. […] Because the patient was on Lodine (NSAID) at the same time, we elected to see if they could stop the Lodine and still have relief of symptoms.

For `CCN(CC)CCCC(C)Nc1c2ccc(Cl)cc2nc2ccc(OC)cc12` (centres unmarked) [quinacrine], in series [1] (quinacrine approximately one year, non-toxic condition), the “reason for discontinuation (skin colour)” value is “too yellow”.

As for `CC1(C)S[C@@H]2[C@H](NC(=O)[C@H](N)c3ccc(O)cc3)C(=O)N2[C@H]1C(=O)O` [amoxicillin], the effect on pain result in series [2] (amoxicillin tried on their own) is “of no help”.

Consider `CCN(CCO)CCCC(C)Nc1ccnc2cc(Cl)ccc12` (centres unmarked) [hydroxychloroquine], for which the symptomatic improvement entry in series [2] (hydroxychloroquine with a non-steroidal anti-inflammatory agent, approximately six months) is “did not feel significant improvement”. For the same molecule, the “reason for discontinuation (adverse effect)” value in series [1] (hydroxychloroquine begun 1991, approximately nine months) is “weight loss”.

Take `CC[C@H]1OC(=O)[C@H](C)[C@@H](O[C@H]2C[C@@](C)(OC)[C@@H](O)[C@H](C)O2)[C@H](C)[C@@H](O[C@@H]2O[C@H](C)C[C@H](N(C)C)[C@H]2O)[C@](C)(O)C[C@@H](C)CN(C)[C@H](C)[C@@H](O)[C@]1(C)O` [azithromycin]: the Symptoms entry in series [3] is on record as “no increase in symptoms”.

Values taken from patent US20030207819A1, “Compositions and methods for treating inflammatory connective tissue diseases” (priority 2002, published 2003).
